ChEMBL document CHEMBL6114956, “Design, synthesis, and evaluation of the pharmacological activity of novel NMDA receptor antagonists based on the germacrone scaffold” (2025)
The source made the active and inactive calls. The calls are words filed in the database; no cut-off is given here.

Tests used:
[1] = system: PC-12; assay: Neuroprotective activity against NMDA-induced cell injury in rat PC12 cells at 0.05 uM incubated for 12 hrs by MTT assay relative to control; type: functional
[2] = system: PC-12; assay: Neuroprotective activity against NMDA-induced cell injury in rat PC12 cells at 0.5 uM incubated for 12 hrs by MTT assay relative to control; type: functional
[3] = system: PC-12; assay: Neuroprotective activity against NMDA-induced cell injury in rat PC12 cells at 5 uM incubated for 12 hrs by MTT assay relative to control; type: functional
[4] = molecular target: Glutamate NMDA receptor (Rattus norvegicus) (UniProt P35439+Q00959+Q00960+Q00961+Q62645+Q8VHN2+Q9R1M7); assay: Antagonist activity at NMDAR in rat PC12 cells assessed as inhibition of NMDA-induced Ca2+ influx at 0.05 uM preincubated for 6 hrs followed by NMDA addition measured for 1 to 3 mins by Fluo-4 AM staining based analysis; type: cell-based; conditions: filed as antagonist, time 361-363 min

Row | SMILES | Activity [1] | Activity [2] | Activity [3] | Activity [4]
1 | CC(C)=C1C/C=C(/C)CC/C=C(\C)CC1OC(=O)[C@@H]1CCC2=Nc3ccccc3CN21 (stereo not given in full) | 29.63% | 26.17% | 24.42% | Active; Compound Activity Was Superior To Ifenprodil
2 | CC(C)=C1C/C=C(/C)CC/C=C(\C)CC1OC(=O)[C@H](C)NC(=O)c1ccc(Cl)cc1 (stereo not given in full) | 14.06% | 15.27% | 11.25% | 
3 | CC(C)=C1C/C=C(/C)CC/C=C(\C)CC1OC(=O)[C@H](C)NC(=O)c1ccc(O)cc1 (stereo not given in full) | 12.86% | 10.31% | -2.01% | 
4 | CC(C)=C1C/C=C(/C)CC/C=C(\C)CC1OC(=O)[C@@H]1CCC2=Nc3ccc(Br)cc3CN21 (stereo not given in full) | 23.62% | 28.02% | 29.37% | 
5 | CC(C)=C1C/C=C(/C)CC/C=C(\C)CC1=O | 14.66% | 2.94% | -4.79% | Active
6 | CC(C)=C1C/C=C(/C)CC/C=C(\C)CC1OC(=O)[C@@H](C)NC(=O)c1ccc(O)cc1 (stereo not given in full) | 15.74% | 15.08% | 11.03% | 
7 | CC(C)=C1C/C=C(/C)CC/C=C(\C)CC1OC(=O)[C@H](C)NC(=O)c1ccc(F)cc1 (stereo not given in full) | 15.35% | 12.7% | 16.47% | 
8 | CC(C)=C1C/C=C(/C)CC/C=C(\C)CC1OC(=O)[C@@H]1CCC2=Nc3ccc(Cl)cc3CN21 (stereo not given in full) | 28.73% | 28.87% | 25.35% | 
9 | CC(C)=C1C/C=C(/C)CC/C=C(\C)CC1OC(=O)[C@@H](C)NC(=O)c1ccc(Cl)cc1 (stereo not given in full) | 15.03% | 16.58% | 5.32% | 
10 | CC(C(O)c1ccc(O)cc1)N1CCC(Cc2ccccc2)CC1 (stereo not given) [IFENPRODIL] | 18.31% | 22.57% | 31.16% | 
11 | CC(C)=C1C/C=C(/C)CC/C=C(\C)CC1OC(=O)[C@@H](C)NC(=O)c1ccc(F)cc1 (stereo not given in full) | 13.93% | 9.33% | 12.32% | 
